Key:
[1] = target: T1, MAGL (Mus musculus (Mouse), UniProt O35678); experiment: In vitro competitive activity-based protein profiling (FP-Rh), mouse MAGL; type: biochemical; conditions: mouse brain membrane proteome
Protocol: (§1) In Vitro Competitive Activity-Based Protein Profiling.
(§2) Proteomes (mouse brain membrane fraction or cell lysates) ([…], 1.0 mg/mL total protein concentration) were preincubated with varying concentrations of inhibitors at 37° C. After 30 min, FP-Rh (1.0 μL, 50 μM in DMSO) was added and the mixture was incubated for another 30 min at 37° C. Reactions were quenched with SDS loading buffer (50 μL—4×) and run on SDS-PAGE.

[2] = target: T2, FAAH (Mus musculus (Mouse), UniProt O08914); experiment: In vitro competitive activity-based protein profiling (FP-Rh), mouse FAAH; type: biochemical; conditions: mouse brain membrane proteome
Protocol: as §1, §2

[3] = target: T3, ABHD6 (Mus musculus (Mouse), UniProt Q8R2Y0); experiment: In vitro competitive activity-based protein profiling (FP-Rh), mouse ABHD6; type: biochemical; conditions: mouse brain membrane proteome
Protocol: as §1, §2

[4] = target: Mouse brain MAGL (Mus musculus (Mouse), UniProt O35678); experiment: Mouse brain proteomes from inhibitor treated mice (oral gavage, ABPP of brain MAGL); type: in vivo; conditions: for Mouse brain MAGL (% inhibition at 20 mg/kg, p.o.) / Mouse brain MAGL (% inhibition at 5 mg/kg, p.o.): 4 h following administration; for ED50: po
Protocol: Preparation of Mouse Brain Proteomes from Inhibitor Treated Mice.
Inhibitors were administered to wild-type C57Bl/6J by oral gavage in a vehicle of polyethylene glycol.

[5] = target: Human MAGL (Homo sapiens (Human), UniProt Q99685); experiment: Competitive ABPP with recombinant human MAGL expressed in HEK293T cells; type: biochemical
Protocol: as §2
Recombinant Expression of Human MAGL in HEK293T Cells.
Cell lysates were diluted with mock proteomes for use in competitive ABPP experiments.

[6] = target: T1, MAGL; experiment: Competitive ABPP, % inhibition at 1 uM, MAGL; type: biochemical
Protocol: as §1, §2

[7] = target: T2, FAAH; experiment: Competitive ABPP, % inhibition at 1 uM, FAAH; type: biochemical
Procedure, shortened: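 Mouse brain membrane proteome or cell lysate (1.0 mg/mL protein) preincubated 30 min at 37° C with inhibitor, then labelled 30 min at 37° C with FP-Rh probe. Resolved by SDS-PAGE; activity from in-gel fluorescence intensity of FAAH band.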

[8] = target: T3, ABHD6; experiment: Competitive ABPP, % inhibition at 1 uM, ABHD6; type: biochemical
Protocol: as §1, §2

Chain of Mouse brain MAGL (O35678 whole entry): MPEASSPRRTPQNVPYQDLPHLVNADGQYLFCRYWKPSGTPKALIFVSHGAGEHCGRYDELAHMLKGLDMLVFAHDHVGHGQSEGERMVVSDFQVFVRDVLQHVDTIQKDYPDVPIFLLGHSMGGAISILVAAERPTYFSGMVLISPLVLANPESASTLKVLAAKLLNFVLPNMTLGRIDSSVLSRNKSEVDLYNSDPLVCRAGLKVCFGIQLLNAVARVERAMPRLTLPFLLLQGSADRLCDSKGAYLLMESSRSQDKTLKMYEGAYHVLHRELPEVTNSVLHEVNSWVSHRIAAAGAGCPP
T1 sequence (O35678 whole entry): as above
T3 sequence (Q8R2Y0 whole entry): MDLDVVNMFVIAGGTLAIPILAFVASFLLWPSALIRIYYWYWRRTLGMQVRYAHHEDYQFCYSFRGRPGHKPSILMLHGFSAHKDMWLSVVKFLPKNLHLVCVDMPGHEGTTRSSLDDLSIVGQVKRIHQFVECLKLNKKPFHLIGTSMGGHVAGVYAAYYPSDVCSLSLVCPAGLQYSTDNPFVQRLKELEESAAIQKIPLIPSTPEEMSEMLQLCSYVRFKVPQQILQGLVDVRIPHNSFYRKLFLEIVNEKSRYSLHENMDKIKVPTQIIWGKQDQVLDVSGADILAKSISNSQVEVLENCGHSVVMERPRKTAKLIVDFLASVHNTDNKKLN
T2 sequence (O08914 whole entry): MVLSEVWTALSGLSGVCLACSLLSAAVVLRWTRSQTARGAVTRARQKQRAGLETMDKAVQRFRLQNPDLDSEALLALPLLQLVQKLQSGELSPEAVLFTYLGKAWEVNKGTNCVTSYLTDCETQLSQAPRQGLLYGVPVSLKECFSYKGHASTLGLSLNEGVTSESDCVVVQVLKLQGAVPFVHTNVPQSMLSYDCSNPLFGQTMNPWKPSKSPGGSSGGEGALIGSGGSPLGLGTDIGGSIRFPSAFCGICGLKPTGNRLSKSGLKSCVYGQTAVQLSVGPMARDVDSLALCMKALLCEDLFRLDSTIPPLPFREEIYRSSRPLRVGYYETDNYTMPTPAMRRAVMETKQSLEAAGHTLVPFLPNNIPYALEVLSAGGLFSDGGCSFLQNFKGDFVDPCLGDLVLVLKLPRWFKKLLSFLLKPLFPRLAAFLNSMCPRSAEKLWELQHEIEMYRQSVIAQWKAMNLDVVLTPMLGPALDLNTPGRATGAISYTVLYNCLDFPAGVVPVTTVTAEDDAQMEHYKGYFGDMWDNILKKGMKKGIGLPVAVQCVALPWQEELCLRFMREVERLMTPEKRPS
Chain of Human MAGL (Q99685 whole entry): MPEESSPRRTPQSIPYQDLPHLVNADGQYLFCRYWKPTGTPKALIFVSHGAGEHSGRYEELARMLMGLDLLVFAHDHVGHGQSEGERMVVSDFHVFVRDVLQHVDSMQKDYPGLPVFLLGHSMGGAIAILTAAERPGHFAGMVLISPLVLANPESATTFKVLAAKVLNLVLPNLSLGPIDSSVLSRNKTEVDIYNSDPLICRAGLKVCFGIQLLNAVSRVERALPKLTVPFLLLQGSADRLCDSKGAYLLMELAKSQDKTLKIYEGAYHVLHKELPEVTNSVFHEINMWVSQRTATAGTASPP

With `O=C(OC(C(F)(F)F)C(F)(F)F)N1CCC(C(O)(c2ccc3c(c2)OCO3)c2ccc3c(c2)OCO3)CC1` [Example 1a, 1,1,1,3,3,3-hexafluoropropan-2-yl 4-(bis(benzo[d][1,3]dioxol-5-yl)(hydroxy)methyl)piperidine-1-carboxylate] the IC50 ([1]; competitive ABPP) was < 100 nM, the IC50 ([2]; competitive ABPP) was > 10000 nM and the IC50 ([3]; competitive ABPP) was > 1000 nM. For the same compound, the “Mouse brain MAGL (% inhibition at 20 mg/kg, p.o.)” value [4] was >95% and the IC50 ([5]; hMAGL in HEK293T cell lysates) was < 100 nM.
With `O=C(OC(C(F)(F)F)C(F)(F)F)N1CCC(C(c2ccc3c(c2)OCO3)c2ccc3c(c2)OCO3)CC1` [Example 1c, 1,1,1,3,3,3-hexafluoropropan-2-yl 4-(bis(benzo[d][1,3]dioxol-5-yl)methyl)piperidine-1-carboxylate] the IC50 ([1]; competitive ABPP) was < 100 nM, the IC50 ([2]; competitive ABPP) was > 10000 nM and the IC50 ([3]; competitive ABPP) was > 1000 nM. The “Mouse brain MAGL (% inhibition at 20 mg/kg, p.o.)” value [4] was >95% and the IC50 ([5]; hMAGL in HEK293T cell lysates) was < 100 nM.
For `O=C(OC(C(F)(F)F)C(F)(F)F)N1CCN(C(c2ccc(F)cc2)c2ccc(F)cc2)CC1` [Example 2a, 1,1,1,3,3,3-hexafluoropropan-2-yl 4-(bis(4-fluorophenyl)methyl)-piperazine-1-carboxylate], the IC50 ([1]; competitive ABPP) was < 100 nM, the IC50 ([2]; competitive ABPP) was > 10000 nM and the IC50 ([3]; competitive ABPP) was > 1000 nM. For the same compound, the “Mouse brain MAGL (% inhibition at 20 mg/kg, p.o.)” value [4] was >95% and the IC50 ([5]; hMAGL in HEK293T cell lysates) was < 100 nM.
`O=C(OC(C(F)(F)F)C(F)(F)F)N1CCN(C(c2ccc(Br)cc2)c2ccc(Br)cc2)CC1` [Example 2c, 1,1,1,3,3,3-hexafluoropropan-2-yl 4-(bis(4-bromophenyl)methyl)-piperazine-1-carboxylate] was tested, and the IC50 ([1]; competitive ABPP) was 100 to 1000 nM, the IC50 ([2]; competitive ABPP) was > 10000 nM and the IC50 ([3]; competitive ABPP) was > 1000 nM. The “Mouse brain MAGL (% inhibition at 20 mg/kg, p.o.)” value [4] was 94% and the IC50 ([5]; hMAGL in HEK293T cell lysates) was < 100 nM.
In the case of `O=C(OC(C(F)(F)F)C(F)(F)F)N1CCN(C(c2ccc3c(c2)OCO3)c2ccc3c(c2)OCO3)CC1` [Example 2d, 1,1,1,3,3,3-hexafluoropropan-2-yl 4-(bis(benzo[d][1,3]dioxol-5-yl)methyl)piperazine-1-carboxylate], the IC50 ([1]; competitive ABPP) is reported as < 100 nM, the IC50 ([2]; competitive ABPP) is reported as > 10000 nM and the IC50 ([3]; competitive ABPP) is reported as 100 to 1000 nM. For the same compound, the “Mouse brain MAGL (% inhibition at 20 mg/kg, p.o.)” value [4] was >95% and the IC50 ([5]; hMAGL in HEK293T cell lysates) was < 100 nM.
In the case of `O=C(OC(C(F)(F)F)C(F)(F)F)N1CCN(Cc2cccc(Oc3ccccc3)c2)CC1` [Example 3a, 1,1,1,3,3,3-hexafluoropropan-2-yl 4-(3-phenoxybenzyl)piperazine-1-carboxylate], the IC50 ([1]; competitive ABPP) is reported as < 100 nM, the IC50 ([2]; competitive ABPP) is reported as > 10000 nM and the IC50 ([3]; competitive ABPP) is reported as < 100 nM. The “Mouse brain MAGL (% inhibition at 20 mg/kg, p.o.)” value [4] was >95% and the IC50 ([5]; hMAGL in HEK293T cell lysates) was < 100 nM.
For `CN(Cc1cccc(-c2cccnc2)c1)C(=O)OC(C(F)(F)F)C(F)(F)F` [Example 3g, 1,1,1,3,3,3-hexafluoropropan-2-yl methyl(3-(pyridin-3-yl)benzyl)-carbamate], the IC50 ([1]; competitive ABPP) was 100 to 1000 nM, the IC50 ([2]; competitive ABPP) was > 10000 nM and the IC50 ([3]; competitive ABPP) was < 100 nM. The “Mouse brain MAGL (% inhibition at 20 mg/kg, p.o.)” value [4] was 93% and the IC50 ([5]; hMAGL in HEK293T cell lysates) was < 100 nM.
With `CC(C)(C)c1ccc(S(=O)(=O)N2CCN(C(=O)OC(C(F)(F)F)C(F)(F)F)CC2)cc1` [Example 4c, 1,1,1,3,3,3-hexafluoropropan-2-yl 4-((4-(tert-butyl)phenyl)sulfonyl)-piperazine-1-carboxylate] the IC50 ([1]; competitive ABPP) was < 100 nM, the IC50 ([2]; competitive ABPP) was > 10000 nM and the IC50 ([3]; competitive ABPP) was > 1000 nM. The “Mouse brain MAGL (% inhibition at 20 mg/kg, p.o.)” value [4] was >95% and the IC50 ([5]; hMAGL in HEK293T cell lysates) was < 100 nM.
`O=C(OC(C(F)(F)F)C(F)(F)F)N1CCN(Cc2cccc(F)c2N2CCOCC2)CC1` [Example 9d, 1,1,1,3,3,3-hexafluoropropan-2-yl 4-[[3-fluoro-2-(morpholin-4-yl)phenyl]methyl]piperazine-1-carboxylate] was tested, and the IC50 ([1]; competitive ABPP (Table 7)) was < 100 nM, the IC50 ([2]; competitive ABPP (Table 7)) was > 10000 nM and the IC50 ([3]; competitive ABPP (Table 7)) was > 1000 nM. For the same compound, the ED50 [4] was < 4 mg/kg.
In the case of `O=C(OC(C(F)(F)F)C(F)(F)F)N1CCN(Cc2cc(Cl)ccc2N2CCCC2)CC1` [Example 9n, 1,1,1,3,3,3-hexafluoropropan-2-yl 4-[[5-chloro-2-(pyrrolidin-1-yl)phenyl]methyl]piperazine-1-carboxylate], the IC50 ([1]; competitive ABPP (Table 7)) is reported as < 100 nM, the IC50 ([2]; competitive ABPP (Table 7)) is reported as > 10000 nM and the IC50 ([3]; competitive ABPP (Table 7)) is reported as > 1000 nM. For the same compound, the “Mouse brain MAGL (% inhibition at 5 mg/kg, p.o.)” value [4] was 75%, the inhibition at 1 µM [6] was 25 to 75% and the inhibition at 1 µM [7] was < 25%. For the same compound, the inhibition at 1 µM [8] was 25 to 75%.
For `COc1cc(N2CCOCC2)ccc1CN1CCN(C(=O)OC(C(F)(F)F)C(F)(F)F)CC1` [Example 9s, 1,1,1,3,3,3-hexafluoropropan-2-yl 4-(2-methoxy-4-morpholinobenzyl)piperazine-1-carboxylate], the IC50 ([1]; competitive ABPP (Table 7)) was < 100 nM, the IC50 ([2]; competitive ABPP (Table 7)) was > 6250 nM and the IC50 ([3]; competitive ABPP (Table 7)) was 100 to 1000 nM. For the same compound, the ED50 [4] was < 4 mg/kg and the IC50 ([5]; hMAGL in HEK293T cell lysates (Table 7)) was < 100 nM.
`CC(C)n1cc(CN2CCN(C(=O)OC(C(F)(F)F)C(F)(F)F)CC2)c(-c2ccccc2Cl)n1` [Example 10i, 1,1,1,3,3,3-hexafluoropropan-2-yl 4-[[3-(2-chlorophenyl)-1-(propan-2-yl)-1H-pyrazol-4-yl]methyl]piperazine-1-carboxylate] was tested, and the IC50 ([1]; competitive ABPP (Table 7)) was < 100 nM, the IC50 ([2]; competitive ABPP (Table 7)) was > 10000 nM and the IC50 ([3]; competitive ABPP (Table 7)) was 100 to 1000 nM. The “Mouse brain MAGL (% inhibition at 5 mg/kg, p.o.)” value [4] was 75%.
`O=C(OC(C(F)(F)F)C(F)(F)F)N1CCN(Cc2ccc(-c3ccccc3)cc2C(=O)N2CCCC2)CC1` [Example 11y, 1,1,1,3,3,3-hexafluoropropan-2-yl 4-([4-phenyl-2-[(pyrrolidin-1-yl)carbonyl]phenyl]methyl)piperazine-1-carboxylate] was tested, and the IC50 ([1]; competitive ABPP (Table 7)) was < 100 nM, the IC50 ([2]; competitive ABPP (Table 7)) was > 10000 nM and the IC50 ([3]; competitive ABPP (Table 7)) was > 1000 nM. For the same compound, the “Mouse brain MAGL (% inhibition at 5 mg/kg, p.o.)” value [4] was 75%.

Source: patent publication US9133148B2, “Carbamate compounds and of making and using same” (Abide Therapeutics, Inc., priority 2012, dated 2015)
